From ChEMBL document CHEMBL3243923, “Linked Aryl Aryloxypropanolamines as a new class of lipid catabolis agents” (J Med Chem, 1978)
Active and inactive are the calls of the source. No cut-off for these calls is given here.

How the values were obtained:
Mus musculus [1] = test: Antiobesity activity in mouse assessed as reduction in utero fat at 0.04% administered every day through diet for 10 days measured after day 10 relative to control; format: functional
[2] = (§1) Chronic toxicity in po dosed mouse assessed as mortality administered as qd for 21 days; format: organism-based; settings: in vivo, read-out: MNTD
Mus musculus [3] = test: Antiobesity activity in mouse assessed as reduction in utero fat at 0.02% administered every day through diet for 10 days measured after day 10 relative to control; format: functional; set-up: scale not given: the % may be the effect or the level left
[4] = Therapeutic index, ratio of MNTD for chronic toxicity in po dosed mouse to ED25 for antiobesity activity in mouse assessed as reduction in utero fat; format: organism-based; settings: in vivo, read-out: TI
Mus musculus [5] = test: Toxicity in mouse assessed as liver hypertrophy at 1000 mg/kg, po administered for 21 days; format: organism-based; set-up: dose 1000 mg/kg, route oral; settings: in vivo, 504 h
Mus musculus [6] = test: Antiobesity activity in mouse assessed as reduction in utero fat administered every day through diet for 10 days measured after day 10; format: functional; settings: 240 h
Mus musculus [7] = test: as §1; format: organism-based; settings: in vivo, 504 h
Mus musculus [8] = test: Antiobesity activity in mouse assessed as reduction in utero fat at 0.01% administered every day through diet for 10 days measured after day 10 relative to control; format: functional; set-up: scale not given: the % may be the effect or the level left
Rattus norvegicus [9] = test: Toxicity in rat assessed as increase in liver weight at 100 mg/kg, po qd administered for 5 days measured on day 6 relative to control; format: organism-based; set-up: dose 100 mg/kg, route oral; settings: in vivo, 120 h
Rattus norvegicus [10] = test: Antiobesity activity in rat assessed as reduction in utero fat at 100 mg/kg, po qd administered for 5 days measured on day 6 relative to control; format: functional; set-up: scale not given: the % may be the effect or the level left
Rattus norvegicus [11] = test: Antiobesity activity in rat assessed as reduction in body weight at 100 mg/kg, po qd administered for 5 days measured on day 6 relative to control; format: functional; set-up: scale not given: the % may be the effect or the level left
Rattus norvegicus [12] = test: Antiobesity activity in rat assessed as reduction in food intake at 100 mg/kg, po qd administered for 5 days measured every day for 5 days relative to control; format: functional; set-up: scale not given: the % may be the effect or the level left
Rattus norvegicus [13] = test: Toxicity in rat assessed as increase in adrenal weight at 100 mg/kg, po qd administered for 5 days measured on day 6 relative to control; format: organism-based; set-up: dose 100 mg/kg, route oral; settings: in vivo, 120 h

Structure (SMILES)	Activity (Mus musculus [1])	also measured
CC(C)(C)c1cc(/C=C/c2ccccc2)cc(C(C)(C)C)c1OCC(O)CNCc1ccccc1 (centres undefined)	inactive	
CCc1cc(/C=C/c2ccccc2F)cc(CC)c1OCC(O)CNC(C)C (centres undefined)	37%	
CC(C)NCC(O)COc1c(C(C)(C)C)cc(/C=C/c2ccc(Br)cc2)cc1C(C)(C)C (centres undefined)		MTD at 504 h [2]: 150 mg/kg; Activity (Mus musculus [3]): 31%; selectivity ratio [4]: 4.3; Activity (Mus musculus [5]): Non-toxic; ED25 (Mus musculus [6]): 34 mg/kg
COc1ccc(-c2cc(C(C)(C)C)c(OCC(O)CNC(C)C)c(C(C)(C)C)c2)cc1 (centres undefined)	inactive	
CC(C)NCC(O)COc1c(C(C)(C)C)cc(CCc2ccccc2)cc1C(C)(C)C (centres undefined)	inactive	
CC(C)(C)c1cc(/C=C/c2ccccc2)cc(C(C)(C)C)c1OCC(O)CNCCO (centres undefined)	inactive	
CNCC(O)COc1c(C(C)(C)C)cc(/C=C/c2ccccc2)cc1C(C)(C)C.O.O=C(O)C(=O)O (centres undefined)	44%	
CC(C)(C)c1cc(/C=C/c2ccccc2)cc(C(C)(C)C)c1OCC(O)CNCCNC(=O)Nc1ccccc1 (centres undefined)	inactive	
CC(C)NCC(O)COc1c(C(C)(C)C)cc(C#Cc2ccccc2)cc1C(C)(C)C.O=C(O)/C=C\C(=O)O (centres undefined)	25%	
CC(C)NCC(O)COc1c(C(C)(C)C)cc(S(=O)(=O)c2ccc(Cl)cc2)cc1C(C)(C)C (centres undefined)	inactive	
CC(C)NCC(O)COc1c(C(C)(C)C)cc(/C=C/c2ccc3ccccc3c2)cc1C(C)(C)C (centres undefined)	inactive	
CC(C)CNCC(O)COc1c(C(C)(C)C)cc(/C=C/c2ccccc2)cc1C(C)(C)C (centres undefined)	inactive	
CC(C)NCC(O)COc1c(C(C)(C)C)cc(Oc2ccccc2)cc1C(C)(C)C.O=C(O)/C=C\C(=O)O (centres undefined)	20%	MTD at 504 h [2]: 100 mg/kg; Activity (Mus musculus [5]): Non-toxic; ED25 (Mus musculus [6]): 20 mg/kg
CC(C)NCC(O)COc1c(C2CCCCC2)cc(/C=C/c2ccccc2)cc1C1CCCCC1.O=C(O)/C=C\C(=O)O (centres undefined)	27%	MTD at 504 h [2]: 100 mg/kg; Activity (Mus musculus [5]): Non-toxic; ED25 (Mus musculus [6]): 38 mg/kg
CC(C)NCC(O)COc1c(C(C)(C)C)cc(/C=C/c2ccc(Cl)c(Cl)c2)cc1C(C)(C)C (centres undefined)	inactive	
CCNCC(O)COc1c(C(C)(C)C)cc(/C=C/c2ccccc2)cc1C(C)(C)C (centres undefined)	24%	
Cc1ccc(/C=C/c2cc(C(C)(C)C)c(OCC(O)CNC(C)C)c(C(C)(C)C)c2)cc1 (centres undefined)	inactive	
CC(C)NCC(O)COc1ccc(C#Cc2ccccc2)cc1 (centres undefined)	28%	
CC(C)(C)NCC(O)COc1c(C(C)(C)C)cc(/C=C/c2ccccc2)cc1C(C)(C)C (centres undefined)	20%	
CC(C)NCC(O)COc1c(C(C)(C)C)cc(Oc2ccc(Cl)cc2)cc1C(C)(C)C (centres undefined)	inactive	
CN(C)CCNCC(O)COc1c(C(C)(C)C)cc(/C=C/c2ccccc2)cc1C(C)(C)C (centres undefined)	inactive	
CC(C)NCC(O)COc1c(C(C)(C)C)cc(/C=C/c2ccc(C(C)(C)C)cc2)cc1C(C)(C)C (centres undefined)	inactive	
CC(C)NCC(O)COc1c(C(C)(C)C)cc(S(=O)(=O)c2ccccc2)cc1C(C)(C)C (centres undefined)	inactive	

Structure (SMILES)	Activity (Mus musculus [1])	also measured
CC(C)NCC(O)COc1c(C(C)(C)C)cc(/C=C/c2ccc(F)cc2)cc1C(C)(C)C (centres undefined)	inactive	
CC(C)NCC(O)COc1c(C(C)(C)C)cc(/C=C/c2ccccc2)cc1C(C)(C)C (centres undefined) [listing 1 of 2 here]		Activity (Mus musculus [3]): inactive
CC(C)NCC(O)COc1ccc(-c2ccc(Cl)cc2)cc1.Cl (centres undefined)	23%	MTD at 504 h [2]: 25 mg/kg; selectivity ratio [4]: 0.5; Activity (Mus musculus [5]): Non-toxic; ED25 (Mus musculus [6]): 50 mg/kg
CCc1cc(/C=C/c2ccccc2)cc(CC)c1OCC(O)CNC(C)C (centres undefined)		MTD at 504 h [2]: 75 mg/kg; Activity (Mus musculus [3]): 20%; selectivity ratio [4]: 1.7; Activity (Mus musculus [5]): Non-toxic; ED25 (Mus musculus [6]): 45 mg/kg
CC(C)NCC(O)COc1ccc(S(=O)(=O)c2ccc(Cl)cc2)cc1 (centres undefined)	inactive	
CC(C)NCC(O)COc1c(C(C)(C)C)cc([S+]([O-])c2ccccc2)cc1C(C)(C)C (centres undefined)	inactive	
CCCNCC(O)COc1c(C(C)(C)C)cc(/C=C/c2ccccc2)cc1C(C)(C)C (centres undefined)	inactive	
Cc1cc(/C=C/c2ccccc2)cc(C(C)(C)C)c1OCC(O)CNC(C)C (centres undefined)	inactive	
CC(C)NCC(O)COc1c(C(C)(C)C)cc(/C=C/c2ccccc2)cc1C(C)(C)C (centres undefined) [listing 2 of 2 here]	39%	
CC(C)NCC(O)COc1c(C(C)C)cc(/C=C/c2ccccc2)cc1C(C)C (centres undefined)	20%	
CCC(C)NCC(O)COc1c(C(C)(C)C)cc(/C=C/c2ccccc2)cc1C(C)(C)C (centres undefined)	23%	
CCCCN(CCCC)CCCNCC(O)COc1c(C(C)(C)C)cc(/C=C/c2ccccc2)cc1C(C)(C)C.O=C(O)/C=C\C(=O)O (centres undefined)	25%	
CC(C)NCC(O)COc1c(C(C)(C)C)cc(/C=C/c2ccccc2Cl)cc1C(C)(C)C (centres undefined)	inactive	
CC(C)NCC(O)COc1c(C(C)(C)C)cc([S+]([O-])c2ccc(Cl)cc2)cc1C(C)(C)C.O=C(O)/C=C\C(=O)O (centres undefined)	23%	MTD at 504 h [2]: 75 mg/kg; Activity (Mus musculus [5]): Non-toxic; ED25 (Mus musculus [6]): 45 mg/kg
Cc1ccccc1/C=C/c1cc(C(C)(C)C)c(OCC(O)CNC(C)C)c(C(C)(C)C)c1 (centres undefined)	42%	
CC(C)NCC(O)COc1c(C(C)(C)C)cc(/C=C/c2ccc(Cl)cc2)cc1C(C)(C)C (centres undefined)	22%	MTD at 504 h [2]: 100 mg/kg; selectivity ratio [4]: 1; Activity (Mus musculus [5]): Non-toxic; ED25 (Mus musculus [6]): 100 mg/kg
CCCCNCC(O)COc1c(C(C)(C)C)cc(/C=C/c2ccccc2)cc1C(C)(C)C (centres undefined)	25%	
Cc1ccc(/C=C/c2cc(C(C)(C)C)c(OCC(O)CNC(C)C)c(C(C)(C)C)c2)cc1C (centres undefined)	inactive	
CC(C)NCC(O)COc1ccc(-c2cccs2)cc1 (centres undefined)		Activity (Mus musculus [7]): Toxic; Activity (Mus musculus [8]): 34%
CC(C)NCC(O)COc1c(C(C)(C)C)cc(/C=C/c2ccccc2)cc1C(C)(C)C (single isomer, unassigned; (+))	inactive	
CC(C)NCC(O)COc1c(C(C)(C)C)cc(/C=C/c2ccc3c(c2)OCO3)cc1C(C)(C)C (centres undefined)	inactive	
CC(C)NCC(O)COc1c(C(C)(C)C)cc(/C=C/c2ccc([N+](=O)[O-])cc2)cc1C(C)(C)C (centres undefined)	45%	
CCc1cc(/C=C/c2ccccc2C(F)(F)F)cc(CC)c1OCC(O)CNC(C)C (centres undefined)	20%	

Structure (SMILES)	Activity (Mus musculus [1])	also measured
CCN(CC)CCCNCC(O)COc1c(C(C)(C)C)cc(/C=C/c2ccccc2)cc1C(C)(C)C (centres undefined)	inactive	
CC(C)(C)c1cc(/C=C/c2ccccc2)cc(C(C)(C)C)c1OCC(O)CNC1CCCCC1 (centres undefined)	24%	
COc1ccc(/C=C/c2cc(C(C)(C)C)c(OCC(O)CNC(C)C)c(C(C)(C)C)c2)cc1Br (centres undefined)	inactive	
CC(C)NCC(O)COc1c(C(C)(C)C)cc(/C=C/c2ccc(O)cc2)cc1C(C)(C)C.O=C(O)/C=C\C(=O)O (centres undefined)		Activity (Mus musculus [3]): 20%
CC(C)NCC(O)COc1c(C(C)(C)C)cc(Sc2ccccc2)cc1C(C)(C)C (centres undefined)	inactive	
CC(C)(C)c1cc(/C=C/c2ccccc2)cc(C(C)(C)C)c1OCC(O)CNC1CC1 (centres undefined)	inactive	
CC(C)NCC(O)COc1c(C(C)(C)C)cc(/C=C/c2cccc3ccccc23)cc1C(C)(C)C (centres undefined)	inactive	
CC(C)NCC(O)COc1c(C(C)(C)C)cc(/C=C/c2cccc(Cl)c2)cc1C(C)(C)C (centres undefined)	21%	MTD at 504 h [2]: 100 mg/kg; selectivity ratio [4]: 1.4; Activity (Mus musculus [5]): Non-toxic; ED25 (Mus musculus [6]): 72 mg/kg
CCC(C)c1cc(/C=C/c2ccccc2)cc(C(C)CC)c1OCC(O)CNC(C)C (centres undefined)	inactive	
CC(C)NCC(O)COc1c(C(C)(C)C)cc(-c2ccccc2)cc1C(C)(C)C.Cl (centres undefined)	28%	MTD at 504 h [2]: 100 mg/kg; selectivity ratio [4]: 5; Activity (Rattus norvegicus [9]): 21%; Activity (Rattus norvegicus [10]): 28%; Activity (Mus musculus [5]): Toxic; Activity (Rattus norvegicus [11]): 4%; Activity (Rattus norvegicus [12]): 51%; Activity (Rattus norvegicus [13]): 16%; ED25 (Mus musculus [6]): 20 mg/kg
CN(C)CCCNCC(O)COc1c(C(C)(C)C)cc(/C=C/c2ccccc2)cc1C(C)(C)C.Cl (centres undefined)	45%	
CC(C)NCC(O)COc1ccc([S+]([O-])c2ccc(Cl)cc2)cc1 (centres undefined)	inactive	
CC(C)NCC(O)COc1c(C(C)(C)C)cc(-c2ccc(Cl)cc2)cc1C(C)(C)C (centres undefined)	36%	MTD at 504 h [2]: 100 mg/kg; selectivity ratio [4]: 3.6; Activity (Mus musculus [5]): Non-toxic; ED25 (Mus musculus [6]): 30 mg/kg
CCCCCCNCC(O)COc1c(C(C)(C)C)cc(/C=C/c2ccccc2)cc1C(C)(C)C (centres undefined)	inactive	
CC(C)NCC(O)COc1ccc(-c2ccccc2)cc1 (centres undefined)	24%	
CC(C)NCC(O)COc1ccc(/C=C/c2ccncc2)cc1 (centres undefined)	24%	
COc1ccc(/C=C/c2cc(C(C)(C)C)c(OCC(O)CNC(C)C)c(C(C)(C)C)c2)cc1 (centres undefined)		MTD at 504 h [2]: 25 mg/kg; Activity (Mus musculus [3]): 26%; selectivity ratio [4]: 1.25; Activity (Mus musculus [5]): Non-toxic; ED25 (Mus musculus [6]): 20 mg/kg
CC(C)NCC(O)COc1c(C(C)(C)C)cc(Sc2ccc(Cl)cc2)cc1C(C)(C)C (centres undefined)	inactive	
COc1ccc(/C=C/c2cc(C(C)(C)C)c(OCC(O)CNC(C)(C)C)c(C(C)(C)C)c2)cc1Br (centres undefined)	inactive	
CC(C)NCC(O)COc1ccc(Sc2ccc(Cl)cc2)cc1 (centres undefined)	22%	
Cc1cc(/C=C/c2ccccc2)cc(C)c1OCC(O)CNC(C)C (centres undefined)	31%	
